Consider 4 compounds from ChEMBL document CHEMBL1201862, “PubChem BioAssay data set” (2004).

Test systems include NCI-H522; SF-295; OVCAR-3; HCT-15; SW-620; ACHN; Malme-3M; LOX IMVI; SK-OV-3; HL-60; TK-10; OVCAR-8; KM12; SF-539; SN12C; COLO 205; A498; BT-549; M14; RXF 393.
Assay in all cases: growth of human tumour cells (NCI), 48 h

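Cells were grown in 96-well plates and exposed to each compound for 48 hours at five concentrations; endpoints were interpolated linearly between bracketing concentrations, or set to the highest concentration if not reached. Abbreviation: GI50, concentration required for 50% inhibition of growth.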 Active and inactive are the calls of the source. Rule as the data show it: active = GI50 up to about 1.1 µM and inactive = higher.

Regarding `CC1(C)Cc2nc3c(cc2C(=O)C1/C=N/C(C#N)=C(\N)C#N)C(=O)C(/C=N/C(C#N)=C(\N)C#N)C(C)(C)C3` (stereo not given), the GI50 with NCI-H522 is 0.705 µM (active); in the assay on SF-295, 2.54 µM (inactive); in the assay with OVCAR-3, 2.77 µM (inactive); with HCT-15, 2.36 µM; in the assay on SW-620, 2.57 µM (inactive); with ACHN, 2.28 µM (inactive). For the same compound, the GI50 was 1.52 µM (inactive) in the assay on Malme-3M; 2.09 µM (inactive) with LOX IMVI; 3.02 µM (inactive) with SK-OV-3; 2.04 µM (inactive) in the assay on HL-60; 4.8 µM (inactive) with TK-10; 2.36 µM (inactive) with OVCAR-8. In addition, the GI50 is 1.77 µM (inactive) with KM12; 1.18 µM (inactive) in the assay on SF-539; 2.06 µM (inactive) in the assay with SN12C; 2.54 µM (inactive) with COLO 205; 4.17 µM (inactive) with A498; 2.19 µM (inactive) in the assay on BT-549. The GI50 was 1.67 µM (inactive) in the assay on M14 and 1.68 µM (inactive) in the assay on RXF 393.

As to `Cc1cccc(C)c1NC(=O)/C(Cl)=C(/Cl)C(=O)O`, the GI50 was 4.33 µM (inactive) in the assay with NCI-H522; 29.2 µM (inactive) in the assay on SF-295; 20.9 µM (inactive) with OVCAR-3; 16.2 µM in the assay with HCT-15; 7.74 µM (inactive) in the assay with SW-620; 15.4 µM (inactive) with ACHN. The GI50 in the assay on Malme-3M is 14.7 µM (inactive); with LOX IMVI, 18.1 µM (inactive); in the assay on SK-OV-3 it was 21.8 µM (inactive); in the assay on HL-60, 2.63 µM (inactive); in the assay on TK-10, 14.7 µM (inactive); in the assay with OVCAR-8, 20.2 µM (inactive). Moreover, the GI50 in the assay with KM12 was 15.3 µM (inactive); with SF-539, 23.1 µM (inactive); in the assay on SN12C, 18.7 µM (inactive); in the assay on COLO 205 it was 7.11 µM (inactive); in the assay on A498, 33.5 µM (inactive); in the assay on BT-549, 17.6 µM (inactive). The figures for the GI50 in the assay on M14 and with RXF 393 were 9.29 µM (inactive) and 18.8 µM (inactive), respectively.

Regarding `O=C1CSC(c2ccccc2)N1c1nc2cc3sc(N4C(=O)CSC4c4ccccc4)nc3cc2s1` (stereo not given), the GI50 is 6.87 µM (inactive) in the assay with NCI-H522; > 100 µM (inactive) in the assay with SF-295; 36.6 µM (inactive) with OVCAR-3; 10.2 µM in the assay with HCT-15; 9.95 µM (inactive) in the assay on SW-620; 35.6 µM (inactive) in the assay with ACHN. Further, the GI50 in the assay with Malme-3M was > 87.7 µM (inactive); in the assay with LOX IMVI, 25.4 µM (inactive); in the assay on SK-OV-3, > 100 µM (inactive); with HL-60, > 63.7 µM (inactive); with TK-10 it was 53.2 µM (inactive); with OVCAR-8, 70.8 µM (inactive). Besides, the GI50 in the assay on KM12 was 17.5 µM (inactive); in the assay with SF-539, 3.03 µM (inactive); in the assay with SN12C it was 32.4 µM (inactive); with COLO 205, 2.85 µM (inactive); in the assay on A498, > 100 µM (inactive); with BT-549, 37.6 µM (inactive). Moreover, the figures for the GI50 with M14 and in the assay with RXF 393 were > 87.3 µM (inactive) and > 100 µM (inactive), respectively.

With `CC(C#N)(c1ccccc1)N(CCc1ccccc1)C(=O)Oc1ccccc1` (stereo not given), the GI50 is > 100 µM (inactive) in the assay on NCI-H522; > 100 µM (inactive) with SF-295; > 100 µM (inactive) in the assay with OVCAR-3; above 100 µM in the assay with HCT-15; > 100 µM (inactive) in the assay with SW-620; > 100 µM (inactive) in the assay on ACHN. Moreover, the GI50 with Malme-3M, in the assay with LOX IMVI, in the assay with SK-OV-3, with HL-60, with TK-10 and with OVCAR-8 was > 100 µM (inactive) throughout. For the same compound, the GI50 in the assay with KM12, with SF-539, in the assay on SN12C, in the assay on COLO 205, in the assay on A498 and with BT-549 was > 100 µM (inactive) each time. Also, the GI50 is > 100 µM (inactive) with M14 and 26.7 µM (inactive) with RXF 393.
